# Columns and labels:
# [1] = tested on: human TARS; test: GTPase (GTP hydrolysis) assay; format: biochemical; settings: for change in TARS GTPase activity upon treatment: 10 μM compound
# [2] = tested on: SK-OV3 ovarian cancer cells; test: HIF-1α stabilization in hypoxia (Western blot); format: cell-based, Human
# Description: Co-Immunoprecipitation—Plasmids expressing biotinylatable TARS (pTARS) and myc-tagged VHL (pVHL) were transfected into HEK293 cells, and then extracts were prepared. Biotin-TARS was precipitated using streptavidin-coupled beads. Myc-VHL was precipitated using anti-myc antibodies. Precipitates were separated by SDS-PAGE, transferred and blots probed with anti-TARS antibody or anti-myc (VHL) antibody. Western blot—After treatments, cells were harvested into sample buffer containing: 0.2 M Tris-HCL, 4% SDS, 4% β-mercaptoethanol, 40% glycerol, 4 μM pyronin Y. Extracts were sheared through a 24-gauge syringe. Samples were separated by 10% SDS-PAGE and transferred to nitrocellulose membrane and probed with rabbit polyclonal anti-TARS (1:500; Santa Cruz Biotechnology, Dallas, Tex.) or monoclonal anti-HIF-1α (BD Transduction Laboratories, [BD Biosciences, San Jose, Calif.]) (Lounsbury, Beddow et al., 1994). […] Major bands and their empty vector counterparts were detected using SilverSNAP Stain Kit II (Pierce) and excised. […] Peptides were analyzed by electospray ionization (ESI) liquid chromatography mass spectrometry (LC-MS). […] Spectra were obtained using collision-induced dissociation with an LTQ linear quadrupole ion trap-Orbitrap mass spectrometer (Thermo Electro, San Jose, Calif.) and analyzed using SEQUEST (Bioworks software package, version 3.3.1; Thermo Electron, San Jose, Calif.). […]
# [3] = tested on: HUVECs; test: TARS mRNA by quantitative RT-PCR; format: cell-based, Human; settings: HUVECs exposed to 50 ng/ml
# Description: Quantitative RT-PCR—Total RNA was extracted from cells using the RNeasy column protocol and cDNA was generated using an Omniscript reverse transcriptase assay according to the manufacturer's instructions (Qiagen, Frederick, Md.). Primers and probes for TARS and β2-microglobulin were Assays-on-Demand (Applied Biosystems, [Life Technologies, Carlsbad, Calif.]). RT-qPCR was performed using an ABI prism 7700 Sequence Detection System (Applied Biosystems). The relative quantity of mRNA level was determined using the comparative CT (ΔΔCT) method using β2-microglobulin to normalize mRNA level (Cassavaugh, Hale et al. 2011).
# [4] = tested on: Human umbilical vein endothelial cells (HUVECs); test: In vitro endothelial tube formation assay; format: cell-based
# Description: In vitro Tube Formation Assay—Tube formation assays were performed as described (Arnaoutova and Kleinman 2010; Cassavaugh, Hale et al., 201). Human Umbilical Vein Endothelial Cells (HUVECs) were seeded in 48-well plates (1.5×10^4 cells/well) coated with 100 μl of Matrigel™ Basement Membrane Matrix Growth Factor Reduced (BD Biosciences, San Jose, Calif.) and incubated in Clonetics® EGM®-2 complete media (Lonza, Annandale, N.J.) or EGM®-2 with reduced serum (0.2% fetal bovine serum). Cells were incubated at 37° C. for 6 h then fixed in 10% formalin. Fixed samples were imaged by phase-contrast microscopy or stained with Oregon Green 488 Phalloidin (Molecular Probes, Eugene, Oreg.) then imaged with fluorescence microscopy (2× objective). Number of tubes and tube lengths (in pixels) were quantified using the Simple Neurite Tracer (Longair, Baker et al. 2011) plug-in on ImageJ software (NIH). Statistical analysis of one-way ANOVA was performed with GraphPad Software. Multiple comparisons were performed using the Tukey Test.
# [5] = tested on: chorioallantoic membrane (CAM); test: Chick chorioallantoic membrane (CAM) assay; format: in vivo, chicken; settings: for CAM vessel formation / vascularization on application of protein: purified protein applied daily to sponge on CAM, 72 h
# Description: Chick Chorioallantoic Membrane Assay—Fertilized chicken eggs (Sunrise Farms, Catskill, N.Y.) day 1-2 post-laying were incubated in a humidified incubator at 37° C. for 72 h. Cleaned eggs were cracked and plated in a sterile 10 cm^2 tissue culture-treated dish and incubated at 37° C. for another 7 days. On developmental day 10, 1 mm sterile gelatin sponge pieces (Surgifoam®; Johnson & Johnson Wound Management, Somerville, N.J.) were placed within the outer one-third of the membrane between large vessels. 40 μg/ml human bFGF and 2 μg/ml human VEGF were used as pro-angiogenic control compounds; 100 μg/mL retinoic acid (Sigma-Aldrich, St. Louis, Mo.) diluted in phosphate-buffered saline (PBS) was used as an angiostatic control. All compounds were applied in 10 μl to the CAM every 24 h for 72 h. Images were taken using a Leica MZ6 stereomicroscope every 24 h. Compounds were scored according to a modified version of Intensity Scoring as previously described (Ribatti, Nico et al. 2006). Briefly, each experimental condition was given a blinded score from 0-5 based on the change in the extent of vessel convergence and formation in proximity to the sponge from day 0 to day 3. Total score is averaged individual experimental condition scores from at least 15 replicates.
# Fertilized chicken embryos were cultured ex-ova and, starting at developmental day 10, agents were applied daily to gelfoam sponges on the CAM. Images were recorded daily over 72 h and scored blindly according to a modified version Intensity Scoring as previously described (Ribatti, Nico, 2006). Additional details regarding methods are provided in the Methods and Materials section of Example 1.
# [6] = tested on: HUVECs; test: Endothelial cell proliferation assay (alamarBlue); format: cell-based, Human; settings: 10 nM BC194 with 50 ng/ml VEGF, low serum media
# Description: Endothelial Cell Proliferation Assay—The […] alamarBlue® (Invitrogen) reagent was used to assess cell proliferation (Ahmed, Gogal et al. 1994). HUVECs were seeded in a 96-well dish (1×10^3 cells/well) and grown for 48 h in EGM®-2 media. Cells were incubated in 0.2% FBS EGM®-2 media or EGM®-2 complete media as indicated; VEGF (50 ng/ml) and media alone served as controls. After 48 h, 72 h, or 96 h in culture, 10 μl/well premixed alamarBlue® (Invitrogen) was added and after 3 h at 37° C. the amount of reduced alamarBlue® was quantified by fluorescence (excitation at 530 nm, emission at 590 nm) on a microplate reader (Synergy™ HT, BioTek, Winooski, Vt.).
# [7] = canonical substrate added to human TARS
molecule,measurement,setting,value
"C[C@@H]1C[C@H](C)C[C@H](C)[C@@H](O)CC(=O)O[C@H]([C@@H]2CCC[C@H]2C(=O)O)C/C=C/C=C(/C#N)[C@H](O)[C@@H](C)C1 [borrelidin, reference compound]",change in TARS GTPase activity upon treatment,[1],no observable change
same,HIF-1α transcription,[2],no change
TNF-α,TARS transcription (TARS mRNA),[3],do not induce TARS transcription
Nc1ncnc2c1ncn2[C@@H]1O[C@H](COP(=O)(O)OP(=O)(O)OP(=O)(O)O)[C@@H](O)[C@H]1O [ATP],decrease in GTPase activity,[1]; [7],77%
VEGF,TARS transcription (TARS mRNA),[3],do not induce TARS transcription
"C[C@@H]1C[C@H](C)C[C@H](C)[C@@H](O)CC(=O)O[C@H]([C@@H]2CC[C@H]2C(=O)O)C/C=C/C=C(/C#N)[C@H](O)[C@@H](C)C1 [BC194, reference compound]",change in TARS GTPase activity upon treatment,[1],no observable change
same,HIF-1α transcription,[2],no change
same,tube length,"[4]; HUVECs on Matrigel, range of BC194 concentrations, 6 h",unaffected
same,concentration required to affect tube formation relative to that required to detect unfolded protein response (phospho-eIF2a) and apoptosis (cleaved caspase-3),[4]; fold lower,100 fold
same,CAM vessel formation with inhibitor,"[5]; daily application to gel sponge, basal level and after stimulation with bFGF or VEGF",inhibited vessel formation
same,effect on VEGF proliferative response,[6],did not significantly reduce
LARS: N-terminal His6-tagged human leucyl tRNA synthetase purified from E. coli,CAM vessel formation / vascularization on application of protein,[5],no observable effect
C[C@@H](O)[C@H](N)C(=O)O [threonine],increase in GTPase activity,[1]; [7],26%
"L567V TARS: BC194-resistant (borrelidin-resistant) L567V mutant of human TARS (protein, UniProt P26639 1-723, looked up, variant L567V) Threonine--tRNA ligase 1, …: MFEEKASSPSGKMGGEEKPIGAGEEKQKEGGKKKNKEGSGDGGRAELNPWPEYIYTRLEMYNILKAEHDSILAEKAEKDSKPIKVTLPDGKQVDAESWKTTPYQIACGISQGLADNTVIAKVNNVVWDLDRPLEEDCTLELLKFEDEEAQAVYWHSSAHIMGEAMERVYGGCLCYGPPIENGFYYDMYLEEGGVSSNDFSSLEALCKKIIKEKQAFERLEVKKETLLAMFKYNKFKCRILNEKVNTPTTTVYRCGPLIDLCRGPHVRHTGKIKALKIHKNSSTYWEGKADMETLQRIYGISFPDPKMLKEWEKFQEEAKNRDHRKIGRDQELYFFHELSPGSCFFLPKGAYIYNALIEFIRSEYRKRGFQEVVTPNIFNSRLWMTSGHWQHYSENMFSFEVEKELFALKPMNCPGHCLMFDHRPRSWRELPLRLADFGVLHRNELSGALTGLTRVRRFQQDDAHIFCAMEQIEDEIKGCLDFLRTVYSVFGFSFKLNLSTRPEKFLGDIEVWDQAEKQLENSLNEFGEKWELNSGDGAFYGPKIDIQIKDAIGRYHQCATIQLDFQVPIRFNLTYVSHDGDDKKRPVIVHRAILGSVERMIAILTENYGGKWPFWLSPRQVMVVPVGPTCDEYAQKVRQQFHDAKFMADIDLDPGCTLNKKIRNAQLAQYNFILVVGEKEKISGTVNIRTRDNKVHGERTISETIERLQQLKEFRSKQAEEEF",sensitivity of the protein's CAM angiogenic effect to BC194,[5]; protein co-applied with BC194,not inhibited
same,CAM vessel formation / vascularization on application of protein,[5],stimulated vessel formation
"R442A TARS: aminoacylation-deficient human TARS mutant, active site Arg442 substituted with alanine (protein, UniProt P26639 1-723, looked up, variant R442A) Threonine--tRNA ligase 1, …: MFEEKASSPSGKMGGEEKPIGAGEEKQKEGGKKKNKEGSGDGGRAELNPWPEYIYTRLEMYNILKAEHDSILAEKAEKDSKPIKVTLPDGKQVDAESWKTTPYQIACGISQGLADNTVIAKVNNVVWDLDRPLEEDCTLELLKFEDEEAQAVYWHSSAHIMGEAMERVYGGCLCYGPPIENGFYYDMYLEEGGVSSNDFSSLEALCKKIIKEKQAFERLEVKKETLLAMFKYNKFKCRILNEKVNTPTTTVYRCGPLIDLCRGPHVRHTGKIKALKIHKNSSTYWEGKADMETLQRIYGISFPDPKMLKEWEKFQEEAKNRDHRKIGRDQELYFFHELSPGSCFFLPKGAYIYNALIEFIRSEYRKRGFQEVVTPNIFNSRLWMTSGHWQHYSENMFSFEVEKELFALKPMNCPGHCLMFDHRPRSWRELPLRLADFGVLHANELSGALTGLTRVRRFQQDDAHIFCAMEQIEDEIKGCLDFLRTVYSVFGFSFKLNLSTRPEKFLGDIEVWDQAEKQLENSLNEFGEKWELNSGDGAFYGPKIDIQIKDAIGRYHQCATIQLDFQLPIRFNLTYVSHDGDDKKRPVIVHRAILGSVERMIAILTENYGGKWPFWLSPRQVMVVPVGPTCDEYAQKVRQQFHDAKFMADIDLDPGCTLNKKIRNAQLAQYNFILVVGEKEKISGTVNIRTRDNKVHGERTISETIERLQQLKEFRSKQAEEEF",CAM vessel formation / vascularization on application of protein,[5],virtually indistinguishable from wild type
